Experimental data as given in article PMC8342319, “Predicting blood-to-plasma concentration ratios of drugs from chemical structures and volumes of distribution in humans” (Molecular Diversity, 2021).
Read-outs that look alike come from different tables or passages of the source.

How the values were obtained:
[1] = human, cited from earlier work
[2] = test system: plasma protein; assay: Measurement of PPB by equilibrium dialysis in pooled human plasma (free fraction); conditions: for fp_Human: human plasma free fraction, footnote b: fu is our experimental data; for fraction unbound at 5 h, 5 µM: human, pooled human plasma
Description: Pooled human plasma was obtained from heparinized blood from nine to ten healthy volunteers not medicated for at least seven days. The human blood collection and PPB experimental protocols were approved by the Ethical Review Committee of Japan Tobacco Inc, Central Pharmaceutical Research Institute. Informed consent was obtained from all subjects, and the PPB experiments were conducted in accordance with the Ethical Guidelines for Medical and Health Research Involving Human Subjects. Binding of compounds to plasma protein was evaluated by equilibrium dialysis utilizing a 96-well equilibrium dialysis unit and HTD96b dialysis membrane strips with a molecular cutoff of 12–14 kDa (HTDialysis, Gales Ferry, CT, USA). Plasma containing the compounds (final concentration of 5 µM) and buffer (Dulbecco’s phosphate-buffered saline; Thermo Fisher Scientific, Waltham, MA) were added into the donor and receiver cells, respectively. Following dialysis for 5 h at 37 °C, the concentrations of the compounds in the plasma and buffer were determined by liquid chromatography–tandem mass spectrometry (LC–MS/MS) (Acquity™ Ultra Performance LC I-Class and Xevo TQ-S; Waters, Milford, MA). The percentage of free fraction (fu) was calculated according to the following equation [17]:1 Freefraction(fu,%)=Concentrationofbuffer/Concentrationofplasma×100

[3] = cited from earlier work
[4] = human, cited from earlier work; for Rb_Human: blood-to-plasma concentration ratio, median if multiple values reported, Reference of Table S1
[5] = test system: plasma protein; conditions: cited from earlier work; for fp_Human (free fraction in plasma): human
[6] = Measurement of Rb (blood-to-plasma concentration ratio) in spiked human blood, LC-MS/MS; format: in vitro ADME; conditions: blood-to-plasma concentration ratio, footnote a: Rb is our experimental data
Description: Heparinized blood was collected from three to seven healthy volunteers not medicated for at least seven days. […] The blood was spiked with the compounds (final concentration of 5 µM) and incubated at 37 °C for 30 min. Following incubation, the samples were centrifuged at 5000 rpm for 5 min to obtain plasma. Subsequently, the concentrations of the compounds in the plasma were determined by LC–MS/MS using the same method as described for the measurement of PPB. Rb was calculated according to Eq. (2).

[7] = intravenous, median if multiple values were reported, ref numbers in Table S1
[8] = human, intravenous, median if multiple values were reported, ref numbers in Table S1
[9] = median if multiple values were reported, ref numbers in Table S1
[10] = collected value, median if multiple values were reported, ref: Table S1
[11] = human, intravenous, median if multiple values reported, Reference of Table S1
[12] = intravenous, median if multiple values reported, Reference of Table S1
[13] = free fraction in human plasma, median if multiple values reported, Reference of Table S1

Molecule | in vivo Vd_(L/kg)_Human [1, 7] [L/kg] | in vivo MRT_(hr)_Human (human) [h] | in vivo CL_(L/hr/kg)_Human [3, 8] [L/h/kg] | fp_Human (free fraction in plasma) [5, 10] | in vivo CL_(L/hr/kg)_Human [3, 11] [L/h/kg] | in vivo Vd_(L/kg)_Human [1, 12] [L/kg] | Rb_Human [4] | fp_Human [5, 13] | other results
O=C(O[C@@H]1C[C@@H]2C[C@H]3C[C@H](C1)N2CC3=O)c1c[nH]c2ccccc12 [Dolasetron] | 2.000 | 0.185 |  |  |  |  |  |  | fp_Human [2]: 0.150; fraction unbound at 5 h, 5 µM [2]: 0.15
COc1cc([C@@H]2c3cc4c(cc3[C@@H](O[C@@H]3O[C@@H]5CO[C@@H](C)O[C@H]5[C@H](O)[C@H]3O)[C@H]3COC(=O)[C@H]23)OCO4)cc(OC)c1O [Etoposide] | 0.180 | 6.000 |  |  |  |  |  |  | fp_Human [2]: 0.053; fraction unbound at 5 h, 5 µM [2]: 0.053
OCCN1CCN(CCCN2c3ccccc3Sc3ccc(C(F)(F)F)cc32)CC1 [Fluphenazine] | 2.900 | 4.983 | 0.591 | 0.040 |  |  |  |  | Rb_Human (blood-to-plasma concentration ratio) [4, 9]: 0.69
C[C@@H]1C[C@H]2[C@@H]3C[C@H](F)C4=CC(=O)C=C[C@]4(C)[C@@]3(F)[C@@H](O)C[C@]2(C)[C@@]1(O)C(=O)SCF [Fluticasone] | 3.600 | 3.529 | 1.020 | 0.100 |  |  |  |  | Rb_Human (blood-to-plasma concentration ratio) [4, 9]: 0.60
CCCCC1=NC2(CCCC2)C(=O)N1Cc1ccc(-c2ccccc2-c2nnn[nH]2)cc1 [Irbesartan] | 0.940 | 6.812 | 0.133 | 0.100 |  |  |  |  | Rb_Human (blood-to-plasma concentration ratio) [4, 9]: 0.60
O=C(c1ccccc1)c1ccc2n1CCC2C(=O)O (stereo not drawn) [Ketorolac] |  |  |  |  |  |  |  |  | fp_Human [2]: 0.016; fraction unbound at 5 h, 5 µM [2]: 0.016
CNCCCC12CCC(c3ccccc31)c1ccccc12 [Maprotiline] | 45.000 | 53.571 | 0.840 | 0.115 |  |  |  |  | Rb_Human (blood-to-plasma concentration ratio) [4, 9]: 1.70
N[C@@H](Cc1ccc(N(CCCl)CCCl)cc1)C(=O)O [Melphalan] |  | 1.143 | 0.366 | 0.120 |  |  |  |  | in vivo Vd_(L/kg)_Human ([1]; in vivo, iv): 0.480 L/kg; Rb_Human (blood-to-plasma concentration ratio) ([4]; plasma): 0.96
CCOC(=O)C1(c2ccccc2)CCN(C)CC1 [Meperidine] | 3.350 | 11.395 | 1.020 | 0.380 |  |  |  |  | Rb_Human (blood-to-plasma concentration ratio) [4, 9]: 1.01
COCCc1ccc(OCC(O)CNC(C)C)cc1 (stereo not drawn) [Metoprolol] |  |  |  |  |  |  |  |  | fp_Human [2]: 0.901; fraction unbound at 5 h, 5 µM [2]: 0.901
Cc1cccc(C)c1OCC(C)N (stereo not drawn) [Mexiletine] | 5.900 | 11.847 | 0.498 | 0.350 |  |  |  |  | Rb_Human (blood-to-plasma concentration ratio) [4, 9]: 1.12
Cc1ncc2n1-c1ccc(Cl)cc1C(c1ccccc1F)=NC2 [Midazolam] |  | 3.459 | 0.318 | 0.030 |  |  |  |  | in vivo Vd_(L/kg)_Human ([1]; in vivo, iv): 1.100 L/kg; Rb_Human (blood-to-plasma concentration ratio) [4, 9]: 0.68; fp_Human [5]: 0.030
COC(=O)C1=C(C)NC(C)=C(C(=O)OCCN(C)Cc2ccccc2)C1c1cccc([N+](=O)[O-])c1 (stereo not drawn) [Nicardipine] | 0.820 | 1.242 |  |  |  |  |  |  | fp_Human [2]: 0.00279; fraction unbound at 5 h, 5 µM [2]: 0.00279
CC(C)=CCN1CCC2(C)c3cc(O)ccc3CC1C2C (stereo not drawn) [Pentazocine] |  | 2.464 | 1.380 | 0.380 |  |  |  |  | in vivo Vd_(L/kg)_Human ([1]; in vivo, iv): 3.400 L/kg; Rb_Human (blood-to-plasma concentration ratio) [4, 9]: 1.07
CCCNC(C)C(=O)Nc1ccccc1C (stereo not drawn) [Prilocaine] |  | 2.126 |  |  | 1.740 | 3.700 | 1.25 | 0.665 | 
CO[C@H]1/C=C/O[C@@]2(C)Oc3c(C)c(O)c4c(c3C2=O)C2=NC3(CCN(CC(C)C)CC3)NC2=C(NC(=O)/C(C)=C\C=C\[C@H](C)[C@H](O)[C@@H](C)[C@@H](O)[C@@H](C)[C@H](OC(C)=O)[C@@H]1C)C4=O [Rifabutin] |  | 64.583 |  |  | 0.144 | 9.300 | 0.59 | 0.290 | 
CN(C)CCc1c[nH]c2ccc(Cn3cncn3)cc12 [Rizatriptan] |  | 1.979 |  |  | 0.960 | 1.900 | 1.04 | 0.860 | 
C=CC[N+]1([C@H]2C[C@H]3[C@@H]4CC[C@H]5C[C@H](O)[C@@H](N6CCOCC6)C[C@]5(C)[C@H]4CC[C@]3(C)[C@H]2OC(C)=O)CCCC1 [Rocuronium] |  | 0.946 |  |  | 0.239 | 0.210 | 1.00 | 0.540 | 
CN(c1nc2ccccc2s1)C1CCN(CC(O)COc2ccc(F)cc2)CC1 (stereo not drawn) [Sabeluzole] |  | 22.634 |  |  | 0.243 | 5.500 | 0.82 | 0.012 | 
Cc1ccsc1C(=CCCN1CCC[C@@H](C(=O)O)C1)c1sccc1C [Tiagabine] |  | 11.458 |  |  | 0.096 | 1.100 | 0.65 | 0.040 | 
O=P(O)(O)C(Sc1ccc(Cl)cc1)P(=O)(O)O [Tiludronate] |  | 55.556 |  |  | 0.018 | 1.000 | 0.60 | 0.100 | 
Cc1ccccc1OCC(O)CNCCOc1ccc(C(N)=O)cc1 (stereo not drawn) [Tolamolol] |  | 4.762 |  |  | 0.840 | 4.000 | 0.76 | 0.089 | 
O=c1n(CCCN2CCN(c3cccc(Cl)c3)CC2)nc2ccccn12 [Trazodone] |  | 6.190 |  |  | 0.084 | 0.520 | 0.81 | 0.073 | 
N[C@@H]1[C@H]2CN(c3nc4c(cc3F)c(=O)c(C(=O)O)cn4-c3ccc(F)cc3F)C[C@@H]12 [Trovafloxacin] |  |  |  |  |  |  |  |  | Rb_Human [6]: 0.87
CCC1=C[C@@H]2CN(C1)Cc1c([nH]c3ccccc13)[C@@](C(=O)OC)(c1cc3c(cc1OC)N(C)[C@H]1[C@@](O)(C(=O)OC)[C@H](OC(C)=O)[C@]4(CC)C=CCN5CC[C@]31[C@@H]54)C2 [Vinorelbine] |  | 19.167 |  |  | 1.230 | 23.000 | 0.58 | 0.870 | 
Cc1cn([C@H]2C[C@H](N=[N+]=[N-])[C@@H](CO)O2)c(=O)[nH]c1=O [Zidovudine] |  | 1.067 |  |  | 1.500 | 1.600 | 1.11 | 0.700 | 
Doxycycline |  |  |  |  |  |  |  |  | in vivo CL_(L/hr/kg)_Human ([3]; in vivo, iv): 0.030 L/h/kg; in vivo Vd_(L/kg)_Human ([1]; in vivo, iv): 0.690 L/kg; Rb_Human (blood-to-plasma concentration ratio) ([4]; plasma): 1.70; fp_Human (free fraction in plasma) ([5]; plasma): 0.120; in vivo MRT_(hr)_Human: 25.000 h
